The record followed here is PubChem BioAssay AID248 (DTP/NCI, 2004).

This experiment deals with L1210 leukemia ip in BDF1 mice, survival T/C. Kind of experiment: NCI In Vivo Anticancer Drug Screen. Data for tumor model L1210 Leukemia (intraperitoneal) in B6D2F1 (BDF1) mice. Conditions: endpoint: mean survival time, higher = longer survival. Summed up: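 Transplanted-tumor mice were given test agent; controls received vehicle only. Survival readings from the two groups were divided (treated over control).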

Where [1] appears, read: dose: 100.0 mg/kg/injection, schedule: Q01DX009 (ip), vehicle: saline.
Where [2] appears, read: dose: 200.0 mg/kg/injection, schedule: Q01DX009 (ip), vehicle: saline.
Where [3] appears, read: dose: 400.0 mg/kg/injection, schedule: Q01DX009 (ip), vehicle: saline.
Where [4] appears, read: dose: 100.0 mg/kg/injection, schedule: Q01DX001 (ip), vehicle: saline.
[5] abbreviates: dose: 200.0 mg/kg/injection, schedule: Q01DX001 (ip), vehicle: saline.
The mark [6] stands for this setting: dose: 400.0 mg/kg/injection, schedule: Q01DX001 (ip), vehicle: saline.
The mark [7] stands for this setting: dose: 100.0 mg/kg/injection, schedule: Q04DX003 (ip), vehicle: Klucel (hydroxypropylcellulose) (HPC).
The mark [8] stands for this setting: dose: 200.0 mg/kg/injection, schedule: Q04DX003 (ip), vehicle: Klucel (hydroxypropylcellulose) (HPC).
Setting [9] is: dose: 50.0 mg/kg/injection, schedule: Q01DX009 (ip), vehicle: saline.
Setting [10] is: dose: 50.0 mg/kg/injection, schedule: Q01DX001 (ip), vehicle: saline.
[11] abbreviates: dose: 100.0 mg/kg/injection, schedule: Q04DX003 (ip), vehicle: saline with Tween-80.
Where [12] appears, read: dose: 25.0 mg/kg/injection, schedule: Q01DX009 (ip), vehicle: Klucel (hydroxypropylcellulose) (HPC).
The mark [13] stands for this setting: dose: 50.0 mg/kg/injection, schedule: Q01DX009 (ip), vehicle: Klucel (hydroxypropylcellulose) (HPC).
The mark [14] stands for this setting: dose: 100.0 mg/kg/injection, schedule: Q01DX009 (ip), vehicle: Klucel (hydroxypropylcellulose) (HPC).

The structures appear in SMILES notation. Several values for one entry are separate records, joined by “and”; a condition that tells them apart may be missing. Identical values can stand only once. Toxic doses and inconclusive results are not listed.

Consider `O=C1OCCC1n1ccc(=O)[nH]c1=O` (stereo not given), for which the T/C under setting [1] is 111 % of control, the T/C under setting [2] is 105 % of control and the T/C under setting [3] is 106 % of control.

Turning to `C=CCC(=O)OCC`, the T/C by setting is: (dose: 222.0 mg/kg/injection, schedule: Q01DX Z (ip), vehicle: saline) 94 % of control; (dose: 333.0 mg/kg/injection, schedule: Q01DX Z (ip), vehicle: saline) 108 % of control; (dose: 500.0 mg/kg/injection, schedule: Q01DX Z (ip), vehicle: saline) 94 % of control.

On to `O=C(O)C1CC=CCC1C(=O)NC(O)C(Cl)(Cl)Cl` (stereo not given), for which the T/C by setting is: under setting [4], 96 % of control; under setting [1], 103 % of control; (dose: 100.0 mg/kg/injection, schedule: Q04DX003 (ip), vehicle: acetone) 93 % of control; under setting [5], 100 % of control; under setting [2], 102 % of control; (dose: 200.0 mg/kg/injection, schedule: Q04DX003 (ip), vehicle: acetone) 98 % of control. Besides, the T/C under setting [6] is 95 % of control; the T/C under setting [3] was 100 % of control; the T/C (dose: 400.0 mg/kg/injection, schedule: Q04DX003 (ip), vehicle: acetone) is 97 % of control.

As for `Cc1cc(C)n(N=C2CCCCC2)c(=O)c1C#N`, the T/C is, setting by setting: (dose: 100.0 mg/kg/injection, schedule: Q01DX001 (ip), vehicle: Klucel (hydroxypropylcellulose) (HPC)) 96 % of control; under setting [7], 100 % of control; (dose: 200.0 mg/kg/injection, schedule: Q01DX001 (ip), vehicle: Klucel (hydroxypropylcellulose) (HPC)) 105 % of control; under setting [8], 99 % of control; (dose: 400.0 mg/kg/injection, schedule: Q01DX001 (ip), vehicle: Klucel (hydroxypropylcellulose) (HPC)) 94 % of control; (dose: 400.0 mg/kg/injection, schedule: Q04DX003 (ip), vehicle: Klucel (hydroxypropylcellulose) (HPC)) 89 % of control.

`COC(=O)/C=C(\C)Nc1ccc(-c2ccccc2)cc1`: the T/C is, setting by setting: under setting [9], 103 % of control; under setting [4], 97 % of control; under setting [1], 102 % of control; (dose: 100.0 mg/kg/injection, schedule: Q04DX003 (ip), vehicle: saline) 101 % of control; under setting [5], 95 % of control; under setting [2], 100 % of control. In addition, the T/C is 97 % of control (dose: 200.0 mg/kg/injection, schedule: Q04DX003 (ip), vehicle: saline); 92 % of control under setting [6]; 97 % of control (dose: 400.0 mg/kg/injection, schedule: Q04DX003 (ip), vehicle: saline).

As to `O=C1OC2c3ccccc3C3CC(=O)C2C13` (stereo not given), the T/C runs as follows: under setting [10], 98 % of control; under setting [4], 104 % of control; under setting [5], 98 % of control; under setting [6], 96 % of control.

Take `C=CCNC(=S)Nc1ccc(N(C)C)cc1`: the T/C was 94 % of control (dose: 50.0 mg/kg/injection, schedule: Q01DX009 (ip), vehicle: saline with Tween-80); 100 % of control (dose: 100.0 mg/kg/injection, schedule: Q01DX009 (ip), vehicle: saline with Tween-80); 103 % of control under setting [11]; 103 % of control (dose: 200.0 mg/kg/injection, schedule: Q01DX009 (ip), vehicle: saline with Tween-80); 95 % of control (dose: 200.0 mg/kg/injection, schedule: Q04DX003 (ip), vehicle: saline with Tween-80).

In the case of `CCC1CCNCC1`, the T/C is 113 % of control (dose: 25.0 mg/kg/injection, schedule: Q01DX009 (ip), vehicle: saline) and 102 % of control under setting [9].

On to `CC(C)OC(=O)c1ccccc1-c1ccccc1`, for which the T/C (dose: 100.0 mg/kg/injection, schedule: Q01DX001 (ip), vehicle: other) is 102 % of control; the T/C (dose: 200.0 mg/kg/injection, schedule: Q01DX001 (ip), vehicle: other) is 96 % of control; the T/C (dose: 400.0 mg/kg/injection, schedule: Q01DX001 (ip), vehicle: other) is 87 % of control.

For the compound `CN(C)NCCC#N`, the T/C reads like this: (dose: 66.0 mg/kg/injection, schedule: Q01DX009 (ip), vehicle: saline) 118 % of control; (dose: 75.0 mg/kg/injection, schedule: Q01DX009 (ip), vehicle: saline) 116 % of control; (dose: 100.0 mg/kg/injection, schedule: Q01DX009 (ip), vehicle: saline sonified) 98 % of control; under setting [1], 116 % of control; (dose: 200.0 mg/kg/injection, schedule: Q01DX009 (ip), vehicle: saline sonified) 111 % of control.

On to `CCCCCCCC[As](=O)(O)CCCCCCCC`, for which the T/C under setting [10] was 101 % of control, the T/C under setting [4] is 101 % of control, the T/C under setting [5] is 98 % of control and the T/C under setting [6] was 107 % of control.

On to `CCCCC(CC)CNC(C)=O` (stereo not given), for which the T/C runs as follows: under setting [7], 99 % of control; under setting [8], 95 % of control.

Turning to `Cc1ccc(N=NNc2ccc(C)cc2)cc1`, the T/C runs as follows: under setting [12], 96 % of control; under setting [13], 97 % of control; (dose: 75.0 mg/kg/injection, schedule: Q04DX003 (ip), vehicle: Klucel (hydroxypropylcellulose) (HPC)) 100 % of control; under setting [14], 97 % of control; (dose: 150.0 mg/kg/injection, schedule: Q04DX003 (ip), vehicle: Klucel (hydroxypropylcellulose) (HPC)) 100 % of control; (dose: 300.0 mg/kg/injection, schedule: Q04DX003 (ip), vehicle: Klucel (hydroxypropylcellulose) (HPC)) 100 % of control.

As for `CC(=O)NCc1ccc(N)cc1`, the T/C runs as follows: (dose: 12.5 mg/kg/injection, schedule: Q01DX009 (ip), vehicle: water) 114 % of control; (dose: 25.0 mg/kg/injection, schedule: Q01DX009 (ip), vehicle: water) 112 % of control; (dose: 50.0 mg/kg/injection, schedule: Q01DX009 (ip), vehicle: water) 114 % of control; (dose: 100.0 mg/kg/injection, schedule: Q01DX009 (ip), vehicle: water) 120 % of control; (dose: 200.0 mg/kg/injection, schedule: Q01DX009 (ip), vehicle: water) 116 % of control.

As to `CCOC(=O)C(C1=NC(C)(C)CC(C)O1)C1CCCCC1` (stereo not given), the T/C is, setting by setting: (dose: 100.0 mg/kg/injection, schedule: Q04DX003 (ip), vehicle: saline sonified) 115 % of control; (dose: 200.0 mg/kg/injection, schedule: Q04DX003 (ip), vehicle: saline sonified) 102 % of control; (dose: 400.0 mg/kg/injection, schedule: Q04DX003 (ip), vehicle: saline sonified) 108 % of control.

As for `CC(=O)OCC1OC(OCC2OC(Sc3ccccc3)C(OC(C)=O)C(OC(C)=O)C2OC(C)=O)C(OC(C)=O)C(OC(C)=O)C1OC(C)=O` (stereo not given), the T/C is 89 % of control (dose: 100.0 mg/kg/injection, schedule: Q04DX002 (ip), vehicle: Klucel (hydroxypropylcellulose) (HPC)); 86 % of control (dose: 200.0 mg/kg/injection, schedule: Q04DX002 (ip), vehicle: Klucel (hydroxypropylcellulose) (HPC)); 86 % of control (dose: 400.0 mg/kg/injection, schedule: Q04DX002 (ip), vehicle: Klucel (hydroxypropylcellulose) (HPC)).

Take `CNC(=O)CCC(NC(=O)c1ccc(N(C)Cc2cnc3nc(N)nc(N)c3n2)cc1)C(=O)O` (stereo not given): the T/C (dose: 25.0 mg/kg/injection, schedule: Q01DX009 (ip), vehicle: sodium bicarbonate) is 116 % of control and the T/C (dose: 100.0 mg/kg/injection, schedule: Q01DX009 (ip), vehicle: sodium bicarbonate) was 158 % of control.

`C#CC[P+](c1ccccc1)(c1ccccc1)c1ccccc1`: the T/C (dose: 6.25 mg/kg/injection, schedule: Q01DX001 (ip), vehicle: saline) was 106 % of control; the T/C (dose: 12.5 mg/kg/injection, schedule: Q01DX001 (ip), vehicle: saline) is 109 % of control; the T/C (dose: 25.0 mg/kg/injection, schedule: Q01DX001 (ip), vehicle: saline) is 116 % of control and 118 % of control.

As to `N#Cc1cnc(N)cc1N`, the T/C was 96 % of control under setting [12]; 97 % of control (dose: 25.0 mg/kg/injection, schedule: Q04DX003 (ip), vehicle: Klucel (hydroxypropylcellulose) (HPC)); 98 % of control under setting [13]; 100 % of control (dose: 50.0 mg/kg/injection, schedule: Q04DX003 (ip), vehicle: Klucel (hydroxypropylcellulose) (HPC)); 104 % of control under setting [14]; 101 % of control and 104 % of control under setting [7]. Moreover, under setting [8], the T/C was 113 % of control.

In the case of `CNCCc1ccc2cc(OC)c(OC)cc2c1`, the T/C under setting [11] was 91 % of control.
